Reference: patent US20220281848A1, “PYRAZOLE-SUBSTITUTED PYRROLIDINONES AS HERBICIDES” (FMC Corporation, priority 2019, published 2022)

Tested on: plants
Experiment: Test D pre-emergence, other plants of Tables D1 and D3
Format: in vivo
Conditions: pre-emergence, 100=total damage, 0=no damage
Outline: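 Seeds treated with herbicide safener; sown in soil; glasshouse, 16 h light, 65% humidity. Sprayed day 1 (pre) or ~day 12 (post). Spray in 0.2% v/v adjuvant. Scored 0–100 damage: 20 DAA pre, 15 d post.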

SMILES: COc1c(F)cccc1NC(=O)C1C(=O)N(C)CC1c1cc(C(F)(F)F)n(C)n1 (racemic) [Compound 18]
- damage to plant, ALOMY (rate 15, 20 DAA): 0
- damage to plant, AVEFA (rate 15, 20 DAA): 0
- damage to plant, BEAVA (rate 15, 20 DAA): 0
- damage to plant, BROTE (rate 15, 20 DAA): 0
- damage to plant, BRSNN (rate 15, 20 DAA): 0
- damage to plant, CHEAL (rate 15, 20 DAA): 0
- damage to plant, GALAP (rate 15, 20 DAA): 0
- damage to plant, HORVW (rate 15, 20 DAA): 0
- damage to plant, KCHSC (rate 15, 20 DAA): 0
- damage to plant, LOLPE (rate 15, 20 DAA): 0
- damage to plant, POAAN (rate 15, 20 DAA): 0
- damage to plant, POLCO (rate 15, 20 DAA): 0
- damage to plant, SINAR (rate 15, 20 DAA): 0
- damage to plant, STEME (rate 15, 20 DAA): 0
- damage to plant, VERPE (rate 15, 20 DAA): 0
- damage to plant, ALOMY (rate 30, 20 DAA): 0
- damage to plant, AVEFA (rate 30, 20 DAA): 0
- damage to plant, BEAVA (rate 30, 20 DAA): 0
- damage to plant, BROTE (rate 30, 20 DAA): 0
- damage to plant, BRSNN (rate 30, 20 DAA): 0
- damage to plant, CHEAL (rate 30, 20 DAA): 0
- damage to plant, GALAP (rate 30, 20 DAA): 0
- damage to plant, HORVW (rate 30, 20 DAA): 0
- damage to plant, KCHSC (rate 30, 20 DAA): 0
- damage to plant, LOLPE (rate 30, 20 DAA): 0
- damage to plant, POAAN (rate 30, 20 DAA): 0
- damage to plant, POLCO (rate 30, 20 DAA): 0
- damage to plant, SINAR (rate 30, 20 DAA): 0
- damage to plant, STEME (rate 30, 20 DAA): 0
- damage to plant, VERPE (rate 30, 20 DAA): 0
- damage to plant, ALOMY (rate 60, 20 DAA): 0
- damage to plant, AVEFA (rate 60, 20 DAA): 0
- damage to plant, BEAVA (rate 60, 20 DAA): 0
- damage to plant, BROTE (rate 60, 20 DAA): 0
- damage to plant, BRSNN (rate 60, 20 DAA): 0
- damage to plant, CHEAL (rate 60, 20 DAA): 0
- damage to plant, GALAP (rate 60, 20 DAA): 0
- damage to plant, HORVW (rate 60, 20 DAA): 0
- damage to plant, KCHSC (rate 60, 20 DAA): 0
- damage to plant, LOLPE (rate 60, 20 DAA): 10
- damage to plant, POAAN (rate 60, 20 DAA): 40
- damage to plant, POLCO (rate 60, 20 DAA): 0
- damage to plant, SINAR (rate 60, 20 DAA): 0
- damage to plant, STEME (rate 60, 20 DAA): 0
- damage to plant, VERPE (rate 60, 20 DAA): 10
- damage to plant, ALOMY (rate 130, 20 DAA): 0
- damage to plant, AVEFA (rate 130, 20 DAA): 0
- damage to plant, BEAVA (rate 130, 20 DAA): 0
- damage to plant, BROTE (rate 130, 20 DAA): 10
- damage to plant, BRSNN (rate 130, 20 DAA): 0
- damage to plant, CHEAL (rate 130, 20 DAA): 20
- damage to plant, GALAP (rate 130, 20 DAA): 10
- damage to plant, HORVW (rate 130, 20 DAA): 0
- damage to plant, KCHSC (rate 130, 20 DAA): 0
- damage to plant, LOLPE (rate 130, 20 DAA): 20
- damage to plant, POAAN (rate 130, 20 DAA): 60
- damage to plant, POLCO (rate 130, 20 DAA): 0
- damage to plant, SINAR (rate 130, 20 DAA): 0
- damage to plant, STEME (rate 130, 20 DAA): 10
- damage to plant, VERPE (rate 130, 20 DAA): 20
- damage to plant, ALOMY (rate 250, 20 DAA): 30
- damage to plant, AVEFA (rate 250, 20 DAA): 30
- damage to plant, BEAVA (rate 250, 20 DAA): 0
- damage to plant, BROTE (rate 250, 20 DAA): 30
- damage to plant, BRSNN (rate 250, 20 DAA): 10
- damage to plant, CHEAL (rate 250, 20 DAA): 20
- damage to plant, GALAP (rate 250, 20 DAA): 30
- damage to plant, HORVW (rate 250, 20 DAA): 0
- damage to plant, KCHSC (rate 250, 20 DAA): 0
- damage to plant, LOLPE (rate 250, 20 DAA): 50
- damage to plant, POAAN (rate 250, 20 DAA): 70
- damage to plant, POLCO (rate 250, 20 DAA): 0
- damage to plant, SINAR (rate 250, 20 DAA): 0
- damage to plant, STEME (rate 250, 20 DAA): 20
- damage to plant, VERPE (rate 250, 20 DAA): 60
- damage to plant, ALOMY (rate 500, 20 DAA): 60
- damage to plant, AVEFA (rate 500, 20 DAA): 40
- damage to plant, BEAVA (rate 500, 20 DAA): 0
- damage to plant, BROTE (rate 500, 20 DAA): 40
- damage to plant, BRSNN (rate 500, 20 DAA): 20
- damage to plant, CHEAL (rate 500, 20 DAA): 30
- damage to plant, GALAP (rate 500, 20 DAA): 20
- damage to plant, HORVW (rate 500, 20 DAA): 40
- damage to plant, KCHSC (rate 500, 20 DAA): 0
- damage to plant, LOLPE (rate 500, 20 DAA): 70
- damage to plant, POAAN (rate 500, 20 DAA): 90
- damage to plant, POLCO (rate 500, 20 DAA): 0
- damage to plant, SINAR (rate 500, 20 DAA): 10
- damage to plant, STEME (rate 500, 20 DAA): 10
- damage to plant, VERPE (rate 500, 20 DAA): 50
